Like-named read-outs stand apart in the source and are kept apart here.
Experiments:
Rhesus PDE2A3 = Rhesus PDE2A3 (Macaca mulatta, UniProt B3VTJ2); assay: PDE2 fluorescence polarization (IMAP FP) assay, rhesus PDE2A3; assay type: biochemical, rhesus macaque
human PDE2A1 = human PDE2A1 (Homo sapiens (Human), UniProt O00408); assay: PDE selectivity IMAP FP assay, human PDE2A1; assay type: biochemical; settings: Human PDE2
In short: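 IMAP fluorescence polarization assay; PDE2 substrate 50 nM FAM-cAMP containing 1000 nM cGMP, enzyme diluted for 20% substrate conversion, in 10 mM Tris HCl pH 7.2, 10 mM MgCl2, 1 mM DTT. Reaction 60 min at room temperature, stopped with IMAP binding solution; polarization read after 1 h. Ki reported.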

[1] = Lab B, read-out: Rhesus PDE2 Ki (nM) Lab B
[2] = Lab B, read-out: Human PDE2 Ki (nM) Lab B
[3] = Lab A, read-out: Rhesus PDE2 Ki (nM) Lab A
[4] = Lab A, read-out: Human PDE2 Ki (nM) Lab A

Sequence of Rhesus PDE2A3 (B3VTJ2 1-941): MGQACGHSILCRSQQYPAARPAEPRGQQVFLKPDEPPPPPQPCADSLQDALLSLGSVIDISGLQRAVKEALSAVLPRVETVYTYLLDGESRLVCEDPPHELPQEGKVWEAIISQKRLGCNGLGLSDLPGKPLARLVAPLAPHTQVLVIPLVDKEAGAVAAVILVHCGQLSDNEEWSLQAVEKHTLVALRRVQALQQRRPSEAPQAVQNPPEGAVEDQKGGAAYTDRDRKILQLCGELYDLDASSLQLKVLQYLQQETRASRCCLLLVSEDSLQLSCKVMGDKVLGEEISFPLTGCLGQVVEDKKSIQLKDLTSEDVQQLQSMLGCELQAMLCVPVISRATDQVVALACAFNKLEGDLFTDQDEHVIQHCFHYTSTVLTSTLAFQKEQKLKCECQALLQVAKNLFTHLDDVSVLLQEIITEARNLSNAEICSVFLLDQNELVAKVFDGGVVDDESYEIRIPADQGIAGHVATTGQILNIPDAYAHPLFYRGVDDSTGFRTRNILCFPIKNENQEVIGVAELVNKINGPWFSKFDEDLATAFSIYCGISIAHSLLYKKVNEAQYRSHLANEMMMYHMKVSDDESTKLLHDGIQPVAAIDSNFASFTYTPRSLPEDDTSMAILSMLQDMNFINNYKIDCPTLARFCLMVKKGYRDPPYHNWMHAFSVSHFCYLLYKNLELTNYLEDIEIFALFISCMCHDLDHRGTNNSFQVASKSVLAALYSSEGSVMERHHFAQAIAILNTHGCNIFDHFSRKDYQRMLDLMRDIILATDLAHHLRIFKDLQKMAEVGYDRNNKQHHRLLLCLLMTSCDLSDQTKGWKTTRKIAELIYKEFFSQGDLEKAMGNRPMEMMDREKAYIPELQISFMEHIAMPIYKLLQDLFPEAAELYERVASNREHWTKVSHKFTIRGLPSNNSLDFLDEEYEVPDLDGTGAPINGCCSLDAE
Sequence of human PDE2A1 (O00408 other isoform, or with tags, fused parts or gaps): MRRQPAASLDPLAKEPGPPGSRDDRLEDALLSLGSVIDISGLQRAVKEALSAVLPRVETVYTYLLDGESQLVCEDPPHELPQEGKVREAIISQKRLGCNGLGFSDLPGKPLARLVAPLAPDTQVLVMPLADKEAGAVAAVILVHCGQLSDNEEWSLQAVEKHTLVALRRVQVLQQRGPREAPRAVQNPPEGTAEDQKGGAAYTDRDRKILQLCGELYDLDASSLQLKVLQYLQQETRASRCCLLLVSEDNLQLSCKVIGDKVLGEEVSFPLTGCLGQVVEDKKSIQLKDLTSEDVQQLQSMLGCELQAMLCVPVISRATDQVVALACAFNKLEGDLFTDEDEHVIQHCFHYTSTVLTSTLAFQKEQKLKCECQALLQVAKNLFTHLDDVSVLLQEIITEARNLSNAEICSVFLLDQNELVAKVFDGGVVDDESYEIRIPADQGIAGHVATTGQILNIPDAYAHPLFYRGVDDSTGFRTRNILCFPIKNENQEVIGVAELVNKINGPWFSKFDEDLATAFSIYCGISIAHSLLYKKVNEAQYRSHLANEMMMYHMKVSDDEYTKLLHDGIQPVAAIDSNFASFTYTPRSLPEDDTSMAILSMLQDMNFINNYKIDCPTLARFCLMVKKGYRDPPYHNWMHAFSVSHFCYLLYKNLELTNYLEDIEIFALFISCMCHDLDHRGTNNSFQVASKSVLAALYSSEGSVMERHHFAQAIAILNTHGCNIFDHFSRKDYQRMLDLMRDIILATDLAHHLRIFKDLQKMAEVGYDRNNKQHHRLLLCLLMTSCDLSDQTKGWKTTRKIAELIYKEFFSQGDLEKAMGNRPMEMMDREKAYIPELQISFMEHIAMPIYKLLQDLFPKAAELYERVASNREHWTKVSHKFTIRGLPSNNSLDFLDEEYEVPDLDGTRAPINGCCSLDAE

Row | Ki (Rhesus PDE2A3; [1]) | Ki (human PDE2A1; [2]) | Ki (Rhesus PDE2A3; [3]) | Ki (human PDE2A1; [4]) | Ki (Rhesus PDE2A3; Rhesus PDE2 Ki (nM) Lab B, Lab B) | SMILES
1 | 0.4 nM | 0.38 nM |  |  |  | CN(C)c1nc2c(c(CO)nn2C(c2ccc(CC(F)(F)F)cc2)C2CC2)c(=O)[nH]1 (single isomer, unassigned) [Example 87, (S)- or (R)-1-(Cyclopropyl(4-(2,2,2-trifluoroethyl)phenyl)methyl)-6-(dimethylainino)-3-(hydroxymethyl)-1H-pyrazolo[3,4-d]pyrimidin-4(5H)-one]
2 | 2.3 nM | 1.1 nM |  |  |  | CC(C)C(c1ccc(C(F)F)cc1)n1nc(CO)c2c(=O)[nH]c(N(C)C)nc21 (single isomer, unassigned) [Example 90, (R)- or (S)-1-(1-(4-(Difluoromethyl)phenyl)-2-methylpropyl)-6-(dimethylamino)-3-(hydroxymethyl)-1H-pyrazolo[3,4-d]pyrimidin-4(5H)-one]
3 | 0.44 nM | 0.42 nM |  |  |  | CC(C)C(c1ccc(C(C)(F)F)cc1F)n1nc(CO)c2c(=O)[nH]c(N(C)C)nc21 (single isomer, unassigned) [Example 118, (R)- or (S)-1-(1-(4-(1,1-Difluoroethyl)-2-fluorophenyl)-2-methylpropyl)-6-(dimethylamino)-3-(hydroxymethyl)-1H-pyrazolo[3,4-d]pyrimidin-4(5H)-one]
4 | 0.21 nM | 0.16 nM |  |  |  | CC(C)C(c1ccc(C(C)(F)F)c(F)c1)n1nc(CF)c2c(=O)[nH]c(N(C)C)nc21 (single isomer, unassigned) [Example 218, (R)- or (S)-1-(1-(4-(1,1-Difluoroethyl)-3-fluorophenyl)-2-methylpropyl)-6-(dimethylamino)-3-(fluoromethyl)-1H-pyrazolo[3,4-d]pyrimidin-4(5H)-one]
5 | 0.14 nM | 0.12 nM |  |  |  | CCC(c1ccc(C(C)(F)F)cc1F)n1nc(CO)c2c(=O)[nH]c(N(C)C)nc21 (single isomer, unassigned) [Example 111, (S)- or (R)-1-(1-(4-(1,1-Difluoroethyl)-2-fluorophenyl)propyl)-6-(dimethylamino)-3-(hydroxymethyl)-1H-pyrazolo[3,4-d]pyrimidin-4(5H)-one]
6 | 0.35 nM | 0.29 nM |  |  |  | CC(c1ccc(CC(F)(F)F)c(F)c1)n1nc(CO)c2c(=O)[nH]c(N(C)C)nc21 (single isomer, unassigned) [Example 101, (S)- or (R)-6-(Dimethylamino)-1-(1-(3-fluoro-4-(2,2,2-trifluoroethyl)phenyl)ethyl)-3-(hydroxymethyl)-1H-pyrazolo[3,4-d]pyrimidin-4(5H)-one]
7 | 126 nM |  | 77 nM | 59 nM |  | CC(c1ccc(OC(F)(F)F)cc1)n1nc(CO)c2c(=O)[nH]c(O)nc21 (stereo not shown) [Example 5]
8 |  | 14 nM |  |  | 16 nM | CC(C)C(c1ccc(OC(F)(F)F)cc1)n1nc(CF)c2c(=O)[nH]c(O)nc21 (single isomer, unassigned) [Example 42, (R)- or (S)-3-(Fluoromethyl)-6-hydroxy-1-(2-methyl-1-(4-(trifluoromethoxy)phenyl)propyl)-1H-pyrazolo[3,4-d]pyrimidin-4(5H)-one]
9 | 0.043 nM | 0.03 nM |  |  |  | CC(C)C(c1ccc(C(C)(F)F)cc1)n1nc(CF)c2c(=O)[nH]c(N(C)C)nc21 (single isomer, unassigned) [Example 207, (S)- or (R)-1-(1-(4-(1,1-Difluoroethyl)phenyl)-2-methylpropyl)-6-(dimethylamino)-3-(fluoromethyl)-1H-pyrazolo[3,4-d]pyrimidin-4(5H)-one]
10 | 64 nM | 59 nM | 51 nM | 27 nM |  | CC(c1ccc(C(C)(C)C)cc1)n1nc(CO)c2c(=O)[nH]c(O)nc21 (stereo not shown) [Example 7, 1-(1-(4-tert-Butylphenyl)ethyl)-6-hydroxy-3-(hydroxymethyl)-1H-pyrazolo[3,4-d]pyrimidin-4(5H)-one]
11 | 0.058 nM | 0.047 nM |  |  |  | CC(C)c1ccc(C(C(C)C)n2nc(CF)c3c(=O)[nH]c(N(C)C)nc32)cc1 (single isomer, unassigned) [Example 177, (S)- or (R)-6-(Dimethylamino)-3-(fluoromethyl)-1-(1-(4-isopropylphenyl)-2-methylpropyl)-1H-pyrazolo[3,4-d]pyrimidin-4(5H)-one]

— patent US10174037B2, “Dihydropyrazolopyrimidinone compounds as PDE2 inhibitors” (Merck Sharp & Dohme Corp., priority 2015, dated 2019)
